Test results: paper PMC7384330 (Neuropharmacology, 2018)
“Also recorded” adds a separate entry of the source. Like-named read-outs stand apart in the source and are kept apart here.

Key:
[1] = target: T1, human oxytocin receptor (OXTR) (Homo sapiens, UniProt P30559); assay: Fluorescence-based intracellular calcium mobilization assay; format: cell-based
T1 sequence (P30559 1-389): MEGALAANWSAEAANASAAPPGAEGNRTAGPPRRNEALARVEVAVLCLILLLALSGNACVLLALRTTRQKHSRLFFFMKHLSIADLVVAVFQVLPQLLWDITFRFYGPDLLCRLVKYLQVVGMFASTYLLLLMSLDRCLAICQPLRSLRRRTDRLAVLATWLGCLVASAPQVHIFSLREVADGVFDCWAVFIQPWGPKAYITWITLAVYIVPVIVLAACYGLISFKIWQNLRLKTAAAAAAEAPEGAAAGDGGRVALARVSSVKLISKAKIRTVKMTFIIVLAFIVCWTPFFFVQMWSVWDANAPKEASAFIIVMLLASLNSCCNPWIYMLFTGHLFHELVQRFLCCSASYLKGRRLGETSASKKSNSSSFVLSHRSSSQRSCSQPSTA

[2] = target: T2, OXTR (β-arrestin recruitment) (Homo sapiens, UniProt P30559); format: cell-based
T2 sequence (P30559 1-389): T1 sequence (P30559 1-389)

[3] = target: T2, OXTR (β-arrestin recruitment); assay: PathHunter eXpress β-Arrestin GPCR Kit, enzyme fragment complementation assay; format: cell-based
[4] = target: T3, human OXTR (Homo sapiens, UniProt P30559); assay: IP3 accumulation assay; format: cell-based
T3 sequence (P30559 1-389): T1 sequence (P30559 1-389)

[5] = target: T4, human Avpr1b vasopressin receptor (Homo sapiens, UniProt P47901); assay: Calcium mobilization assay, CHO-V1b; format: cell-based
T4 sequence (P47901 1-424): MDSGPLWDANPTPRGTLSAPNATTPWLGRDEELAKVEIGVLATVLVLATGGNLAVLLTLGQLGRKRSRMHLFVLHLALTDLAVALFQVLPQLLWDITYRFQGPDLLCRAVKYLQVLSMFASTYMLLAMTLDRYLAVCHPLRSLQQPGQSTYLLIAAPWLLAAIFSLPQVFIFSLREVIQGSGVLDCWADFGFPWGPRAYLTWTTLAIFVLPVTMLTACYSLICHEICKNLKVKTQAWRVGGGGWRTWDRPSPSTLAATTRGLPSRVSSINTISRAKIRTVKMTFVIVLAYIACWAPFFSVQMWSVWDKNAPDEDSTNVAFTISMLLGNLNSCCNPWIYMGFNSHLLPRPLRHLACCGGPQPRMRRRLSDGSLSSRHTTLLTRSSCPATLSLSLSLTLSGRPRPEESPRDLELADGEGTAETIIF

[6] = test system: human Avpr1a vasopressin receptor; assay: Calcium mobilization assay, CHO-V1a; format: cell-based; conditions: Supplemental Fig. 1
[7] = test system: human Avpr2 vasopressin receptor; assay: Calcium mobilization assay, CHO-V2; format: cell-based; conditions: Supplemental Fig. 1
[8] = test system: wild-type CHO cells; assay: Calcium response in wild-type CHO cells; format: cell-based; conditions: Supplemental Fig. 2
[9] = target: T5, muscarinic acetylcholine receptor M2 (Homo sapiens, UniProt P08172); assay: NIMH PDSP GPCR receptor binding screen, M2
T5 sequence (P08172 1-466): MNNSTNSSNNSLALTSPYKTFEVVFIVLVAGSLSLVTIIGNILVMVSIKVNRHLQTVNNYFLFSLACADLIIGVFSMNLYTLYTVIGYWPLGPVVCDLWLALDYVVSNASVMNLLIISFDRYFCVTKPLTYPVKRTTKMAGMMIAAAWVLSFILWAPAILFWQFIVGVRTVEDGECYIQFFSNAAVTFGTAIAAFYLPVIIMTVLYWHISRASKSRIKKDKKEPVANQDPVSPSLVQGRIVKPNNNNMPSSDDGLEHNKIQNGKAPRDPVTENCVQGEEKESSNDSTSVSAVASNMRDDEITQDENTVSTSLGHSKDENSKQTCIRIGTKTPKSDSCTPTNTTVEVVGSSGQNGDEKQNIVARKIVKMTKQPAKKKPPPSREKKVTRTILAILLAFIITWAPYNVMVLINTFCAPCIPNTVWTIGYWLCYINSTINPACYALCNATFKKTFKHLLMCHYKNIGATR

[10] = target: muscarinic acetylcholine receptor M3 (Homo sapiens, UniProt P20309); assay: NIMH PDSP GPCR receptor binding screen, M3
[11] = target: T6, muscarinic acetylcholine receptor M4 (Homo sapiens, UniProt P08173); assay: NIMH PDSP GPCR receptor binding screen, M4
T6 sequence (P08173 1-479): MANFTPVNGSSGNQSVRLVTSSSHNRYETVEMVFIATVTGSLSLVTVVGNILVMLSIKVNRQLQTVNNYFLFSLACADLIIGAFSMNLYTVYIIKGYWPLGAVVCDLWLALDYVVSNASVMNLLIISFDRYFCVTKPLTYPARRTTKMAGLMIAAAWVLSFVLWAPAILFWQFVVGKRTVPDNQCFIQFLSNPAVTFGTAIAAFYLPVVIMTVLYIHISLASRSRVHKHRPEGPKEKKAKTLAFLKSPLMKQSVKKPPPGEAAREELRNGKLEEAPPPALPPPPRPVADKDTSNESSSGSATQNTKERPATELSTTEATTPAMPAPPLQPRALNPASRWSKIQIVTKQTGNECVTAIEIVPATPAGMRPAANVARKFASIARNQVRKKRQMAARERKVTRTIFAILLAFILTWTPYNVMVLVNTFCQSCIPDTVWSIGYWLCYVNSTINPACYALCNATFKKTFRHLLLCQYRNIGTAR

[12] = test system: other human receptors; assay: NIMH PDSP GPCR receptor binding screen, other receptors; conditions: complete set of GPCRs available through NIMH PDSP
[13] = test system: BALB/cByJ mice; assay: Three-chamber social choice test after subchronic regimen; format: in vivo, mouse
[14] = test system: BALB/cByJ mice; assay: Marble-burying assay, BALB/cByJ; format: in vivo, mouse
[15] = test system: OXTR; conditions: ref Pitt et al., 2004, cited from earlier work
[16] = test system: OXTR; conditions: ref Pitt et al., 2004, cited from earlier work; remark: listed apart in the source
[17] = target: Avpr1a vasopressin receptor; conditions: ref Frantz et al., 2010, cited from earlier work
[18] = target: T7, muscarinic acetylcholine receptor M5 (Homo sapiens, UniProt P08912); assay: NIMH PDSP GPCR receptor binding screen, M5
T7 sequence (P08912 1-532): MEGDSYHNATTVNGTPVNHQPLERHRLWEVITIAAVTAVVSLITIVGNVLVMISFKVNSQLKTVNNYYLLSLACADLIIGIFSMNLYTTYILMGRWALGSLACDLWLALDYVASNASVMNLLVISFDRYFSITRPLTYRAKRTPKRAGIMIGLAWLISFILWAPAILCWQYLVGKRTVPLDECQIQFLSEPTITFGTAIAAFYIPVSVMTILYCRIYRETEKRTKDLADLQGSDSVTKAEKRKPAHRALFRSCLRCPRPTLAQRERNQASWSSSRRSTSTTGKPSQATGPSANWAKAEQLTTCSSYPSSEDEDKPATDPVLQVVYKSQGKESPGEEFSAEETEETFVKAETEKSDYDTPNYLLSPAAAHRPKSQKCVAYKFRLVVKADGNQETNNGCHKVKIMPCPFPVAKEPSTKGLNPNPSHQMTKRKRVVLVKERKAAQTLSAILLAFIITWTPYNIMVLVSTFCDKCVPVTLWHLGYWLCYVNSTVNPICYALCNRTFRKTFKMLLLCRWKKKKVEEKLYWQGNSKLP

[19] = test system: rodents; conditions: ref Ring and colleagues 2006, 2010; cited from earlier work
[20] = test system: BALB/cByJ mice; assay: Open field test for activity and exploration; format: in vivo, mouse
[21] = test system: rats; conditions: ref de Wied et al., 1987; cited from earlier work
[22] = test system: rats; conditions: dependent on dose; ref Popik et al., 1996; cited from earlier work

muscarinic acetylcholine receptor M3, sequence (P20309 whole entry): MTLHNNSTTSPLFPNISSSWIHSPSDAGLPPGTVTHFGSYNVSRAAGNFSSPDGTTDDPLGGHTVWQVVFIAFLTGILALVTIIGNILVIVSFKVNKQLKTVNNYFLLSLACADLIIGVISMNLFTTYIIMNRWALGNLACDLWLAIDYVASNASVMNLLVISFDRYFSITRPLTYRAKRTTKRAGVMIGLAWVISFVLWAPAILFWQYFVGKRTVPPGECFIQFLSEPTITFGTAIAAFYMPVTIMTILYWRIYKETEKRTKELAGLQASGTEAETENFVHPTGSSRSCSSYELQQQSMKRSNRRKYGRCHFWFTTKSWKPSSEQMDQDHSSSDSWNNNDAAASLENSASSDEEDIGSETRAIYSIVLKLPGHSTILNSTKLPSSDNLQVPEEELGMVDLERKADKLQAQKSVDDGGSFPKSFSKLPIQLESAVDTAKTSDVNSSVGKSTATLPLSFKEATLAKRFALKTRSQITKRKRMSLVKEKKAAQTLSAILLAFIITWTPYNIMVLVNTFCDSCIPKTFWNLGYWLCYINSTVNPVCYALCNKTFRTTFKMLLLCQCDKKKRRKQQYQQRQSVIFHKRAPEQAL

Cc1cc(C(=O)N2Cc3cnn(C)c3Nc3ccccc32)ccc1CNC(=O)N1CCC[C@H]1C(=S)N1CCCN(C)CC1 [TC-OT-39, (2S)-N-[[4-[(4,10-Dihydro-1-methylpyrazolo[3,4-b][1,5]benzodiazepin-5(1H)-yl)carbonyl]-2-methylphenyl]methyl]-2-[(hexahydro-4-methyl-1H-1,4-diazepin-1-yl)thioxomethyl]-1-pyrrolidinecarboxamide]
Efficacy (% OXT Response), FLIPR TETRA Ca2+ Release ([1]; Table 1, oxytocin response as 100%): 102% | agonist character at human OXTR ([1]; calcium mobilization / Gq signaling): moderately potent full agonist at the human OXTR; also recorded: efficacy comparable to that of oxytocin for Gq signaling | EC50 [2]: 0.31 ± 0.26 µM | Efficacy (% OXT Response), DiscoveRx β-Arrestin ([2]; oxytocin response as 100%): 51 ± 6% | EC50 [3]: 0.48 µM | agonist character for β-arrestin recruitment ([3]; enzyme fragment complementation assay, CHO cells): reduced efficacy for β-arrestin recruitment; also recorded: only a partial agonist of β-arrestin recruitment | Efficacy (% OXT Response), DiscoveRx Express β-Arrestin ([3]; oxytocin response as 100%, run as single points only): 48% | EC50 [4]: 0.89 ± 0.09 µM | Emax ([4]; read-out: maximum efficacy, IP3 accumulation): 67 ± 4% | EC50 [5]: 4.3 ± 0.07 µM | efficacy at human Avpr1b ([5]; compared to vasopressin): 74 ± 2% | activation of human Avpr1a ([6]; CHO-V1a): did not activate the human Avpr1a | inverse agonism at Avpr1a [6]: appears to be an inverse agonist at Avpr1a | activation of human Avpr2 [7]: did not activate the human Avpr1a or Avpr2 receptors | response of wild-type CHO cells [8]: did not induce any response | Ki [9]: > 1 µM | Ki [10]: > 1 µM | Ki [11]: > 1 µM | binding to other human receptors [12]: no significant binding to other human receptors | emergence of sociability at 14 days, TC-OT-39 ([13]; 30 and 50 mg/kg IP, subchronic, 14 days after final injection): no evidence for the emergence of increased sociability at the 14-day time point | marble burying, BALB/cByJ, 50 mg/kg ([14]; TC-OT-39 50 mg/kg IP, 50 min before test, F(1,14)=6.18, p=0.0261): comparable decreases in marble burying | sedative-like effects, 75 mg/kg ([14]; TC-OT-39 75 mg/kg IP, acute, not further tested): overt sedative-like effects | EC50 ([15]; read-out: EC50, OXTR gene reporter assay): 0.033 µM | agonist character, OXTR gene reporter assay [15]: full agonist | EC50 ([16]; read-out: EC50, OXTR IP3 accumulation): 0.667 µM | agonist character, OXTR IP3 accumulation [16]: partial agonist | Ki ([17]; read-out: KI at Avpr1a, antagonist): 0.33 µM | character at Avpr1a [17]: antagonist of the Avpr1a vasopressin receptor | Ki [18]: > 1 µM

Cc1cc(C(=O)N2Cc3cnn(C)c3Nc3ccccc32)ccc1CNC(=O)N1CCN(Cc2cc(O)cc(O)c2)CC1 [WAY-267464]
anxiolytic-like effects, rodent assays [19]: comparable anxiolytic-like effects in rodent assays

pGlu-Asn-Cyt-Pro-Leu-Gly-NH2 [OT(4-9)]
entries, OT(4-9) 1.0 mg/kg ([13]; 1.0 mg/kg IP, subchronic, n=8): without changing entries during the test | proximity to stranger mouse, OT(4-9) 1.0 mg/kg ([13]; 1.0 mg/kg IP, subchronic, n=8, main effect of side F(1,14)=6.84, p=0.0204): significant social preference for proximity to the stranger mouse | time in side with stranger mouse, OT(4-9) 2.0 mg/kg, 24 hr and 12 days ([13]; 2.0 mg/kg IP, subchronic, 24-hr test F(1,21)=7.3, p=0.0133, 12-day test F(1,21)=4.85, p=0.039, n=8): significant preference for spending more time in the side with the stranger mouse at both time points | proximity to stranger mouse, OT(4-9) 2.0 mg/kg, 12 days ([13]; 2.0 mg/kg IP, subchronic, 12 days, F(1,21)=7.02, p=0.015, n=8): significant preference for proximity to the stranger mouse 12 days following the final injection | prosocial efficacy compared with oxytocin ([13]; OT(4-9) 2.0 mg/kg vs oxytocin 1.0 mg/kg, subchronic): prosocial efficacy similar to oxytocin | dose dependence of sociability, OT(4-9) ([13]; subchronic IP): only the higher doses (1.0 and 2.0 mg/kg) leading to increased sociability | entries during 3-chamber test (discussion) ([13]; subchronic IP): neither oxytocin nor OT(4-9) led to alterations in entries during the 3-chamber test | digging responses in marble-burying assay, oxytocin metabolites ([14]; acute IP, 50 min before test, Supplemental Fig. 3B, C): neither OT(4-9) nor OT(5-9) altered digging responses in the marble-burying assay | activity or exploration in open field, OT(4-9) ([20]; OT(4-9) 2.0 mg/kg IP immediately before 2-hr test, versus vehicle, n=9): no significant effects on activity or exploration in the open field | anxiolytic effects, acute OT(4-9) ([20]; acute, marble-burying assay and open field tests): lacked anxiolytic effects in the marble-burying assay and open field tests | potency on avoidance learning relative to oxytocin [21]: greater potency than oxytocin itself on specific aspects of avoidance learning in rats | social recognition [22]: oxytocin-like effects on social recognition in rats, dependent on dose
